Patent US12662479B2 (Foghorn Therapeutics Inc., priority 2020, dated 2026)

How the values were obtained:
[1] = biological target: T1, HiBit-BRG1 fusion protein (Homo sapiens, UniProt P51532); experiment: HiBiT-BRG1 cell-based degradation assay (Nano-Glo HiBiT Lytic Detection, 24 h); conditions: HeLa cells expressing HiBit-BRG1 and LgBit; for DC50: read-out: BRG1 HiBit Degradation IC50; for Dmax: HeLa, top dose 30 μM, read-out: BRG1 HiBit Degradation Maximum measured
T1 construct: expressed in transfected cells
T1 sequence (P51532 whole entry, the tested form may be a part): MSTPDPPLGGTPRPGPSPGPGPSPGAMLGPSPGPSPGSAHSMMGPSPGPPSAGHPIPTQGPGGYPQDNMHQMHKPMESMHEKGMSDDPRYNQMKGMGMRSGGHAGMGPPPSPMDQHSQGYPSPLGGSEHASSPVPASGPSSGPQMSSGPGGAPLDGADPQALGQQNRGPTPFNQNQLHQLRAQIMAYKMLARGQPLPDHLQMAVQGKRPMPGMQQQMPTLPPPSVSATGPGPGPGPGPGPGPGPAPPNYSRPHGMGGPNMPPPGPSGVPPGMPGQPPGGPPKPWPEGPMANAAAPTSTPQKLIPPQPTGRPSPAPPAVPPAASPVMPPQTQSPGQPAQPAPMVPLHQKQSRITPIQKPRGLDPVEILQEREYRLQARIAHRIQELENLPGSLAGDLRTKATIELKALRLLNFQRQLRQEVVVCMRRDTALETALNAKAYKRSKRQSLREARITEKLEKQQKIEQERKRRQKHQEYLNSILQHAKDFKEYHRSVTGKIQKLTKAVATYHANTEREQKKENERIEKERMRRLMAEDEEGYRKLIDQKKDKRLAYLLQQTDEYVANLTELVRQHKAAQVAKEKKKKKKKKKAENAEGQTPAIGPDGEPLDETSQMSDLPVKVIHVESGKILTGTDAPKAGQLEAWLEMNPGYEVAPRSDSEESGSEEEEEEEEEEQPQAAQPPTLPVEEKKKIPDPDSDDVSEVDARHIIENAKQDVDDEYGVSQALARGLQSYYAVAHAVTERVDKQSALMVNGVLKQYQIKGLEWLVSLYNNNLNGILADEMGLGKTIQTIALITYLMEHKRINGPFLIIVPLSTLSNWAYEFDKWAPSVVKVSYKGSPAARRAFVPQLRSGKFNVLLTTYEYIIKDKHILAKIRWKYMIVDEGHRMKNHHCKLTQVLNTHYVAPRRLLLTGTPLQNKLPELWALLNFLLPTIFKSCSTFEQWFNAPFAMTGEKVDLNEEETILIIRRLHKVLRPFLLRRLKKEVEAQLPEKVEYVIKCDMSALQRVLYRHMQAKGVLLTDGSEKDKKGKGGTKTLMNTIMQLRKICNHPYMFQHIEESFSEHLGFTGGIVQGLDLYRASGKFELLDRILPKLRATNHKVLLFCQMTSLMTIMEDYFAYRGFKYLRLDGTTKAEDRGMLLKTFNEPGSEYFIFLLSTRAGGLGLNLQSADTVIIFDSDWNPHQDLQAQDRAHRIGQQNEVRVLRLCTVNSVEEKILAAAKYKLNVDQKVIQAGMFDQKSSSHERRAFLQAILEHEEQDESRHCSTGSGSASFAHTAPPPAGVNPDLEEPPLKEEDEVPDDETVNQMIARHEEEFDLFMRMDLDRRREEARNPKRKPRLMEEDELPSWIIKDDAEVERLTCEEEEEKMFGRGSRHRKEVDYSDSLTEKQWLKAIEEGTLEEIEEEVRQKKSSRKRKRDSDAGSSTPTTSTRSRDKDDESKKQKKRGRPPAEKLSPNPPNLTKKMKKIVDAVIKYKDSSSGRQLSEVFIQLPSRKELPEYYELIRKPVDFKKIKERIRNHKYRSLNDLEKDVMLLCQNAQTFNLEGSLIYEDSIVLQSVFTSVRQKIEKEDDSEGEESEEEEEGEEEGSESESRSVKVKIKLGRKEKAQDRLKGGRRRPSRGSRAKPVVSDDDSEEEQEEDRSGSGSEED
Procedure, shortened: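 Stable HeLa line expressing HiBiT-BRG1 and LgBiT, seeded at 5000 cells/well; luminescence read after lytic Nano-Glo HiBiT reagent and 10 min shaking at RT. % degradation normalised between DMSO (high control) and 2 μM reference BRM/BRG1 degrader (low control).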

HiBit-BRM fusion protein = biological target: T2, HiBit-BRM fusion protein (Homo sapiens, UniProt P51531); experiment: HiBiT-BRM cell-based degradation assay (Nano-Glo HiBiT Lytic Detection, 24 h); conditions: HeLa cells expressing HiBiT-BRM; for DC50: read-out: BRM HiBit Degradation IC50; for BRM HiBit Degradation Maximum measured: top dose 30 μM
T2 construct: expressed in transfected cells
T2 sequence (P51531 whole entry, the tested form may be a part): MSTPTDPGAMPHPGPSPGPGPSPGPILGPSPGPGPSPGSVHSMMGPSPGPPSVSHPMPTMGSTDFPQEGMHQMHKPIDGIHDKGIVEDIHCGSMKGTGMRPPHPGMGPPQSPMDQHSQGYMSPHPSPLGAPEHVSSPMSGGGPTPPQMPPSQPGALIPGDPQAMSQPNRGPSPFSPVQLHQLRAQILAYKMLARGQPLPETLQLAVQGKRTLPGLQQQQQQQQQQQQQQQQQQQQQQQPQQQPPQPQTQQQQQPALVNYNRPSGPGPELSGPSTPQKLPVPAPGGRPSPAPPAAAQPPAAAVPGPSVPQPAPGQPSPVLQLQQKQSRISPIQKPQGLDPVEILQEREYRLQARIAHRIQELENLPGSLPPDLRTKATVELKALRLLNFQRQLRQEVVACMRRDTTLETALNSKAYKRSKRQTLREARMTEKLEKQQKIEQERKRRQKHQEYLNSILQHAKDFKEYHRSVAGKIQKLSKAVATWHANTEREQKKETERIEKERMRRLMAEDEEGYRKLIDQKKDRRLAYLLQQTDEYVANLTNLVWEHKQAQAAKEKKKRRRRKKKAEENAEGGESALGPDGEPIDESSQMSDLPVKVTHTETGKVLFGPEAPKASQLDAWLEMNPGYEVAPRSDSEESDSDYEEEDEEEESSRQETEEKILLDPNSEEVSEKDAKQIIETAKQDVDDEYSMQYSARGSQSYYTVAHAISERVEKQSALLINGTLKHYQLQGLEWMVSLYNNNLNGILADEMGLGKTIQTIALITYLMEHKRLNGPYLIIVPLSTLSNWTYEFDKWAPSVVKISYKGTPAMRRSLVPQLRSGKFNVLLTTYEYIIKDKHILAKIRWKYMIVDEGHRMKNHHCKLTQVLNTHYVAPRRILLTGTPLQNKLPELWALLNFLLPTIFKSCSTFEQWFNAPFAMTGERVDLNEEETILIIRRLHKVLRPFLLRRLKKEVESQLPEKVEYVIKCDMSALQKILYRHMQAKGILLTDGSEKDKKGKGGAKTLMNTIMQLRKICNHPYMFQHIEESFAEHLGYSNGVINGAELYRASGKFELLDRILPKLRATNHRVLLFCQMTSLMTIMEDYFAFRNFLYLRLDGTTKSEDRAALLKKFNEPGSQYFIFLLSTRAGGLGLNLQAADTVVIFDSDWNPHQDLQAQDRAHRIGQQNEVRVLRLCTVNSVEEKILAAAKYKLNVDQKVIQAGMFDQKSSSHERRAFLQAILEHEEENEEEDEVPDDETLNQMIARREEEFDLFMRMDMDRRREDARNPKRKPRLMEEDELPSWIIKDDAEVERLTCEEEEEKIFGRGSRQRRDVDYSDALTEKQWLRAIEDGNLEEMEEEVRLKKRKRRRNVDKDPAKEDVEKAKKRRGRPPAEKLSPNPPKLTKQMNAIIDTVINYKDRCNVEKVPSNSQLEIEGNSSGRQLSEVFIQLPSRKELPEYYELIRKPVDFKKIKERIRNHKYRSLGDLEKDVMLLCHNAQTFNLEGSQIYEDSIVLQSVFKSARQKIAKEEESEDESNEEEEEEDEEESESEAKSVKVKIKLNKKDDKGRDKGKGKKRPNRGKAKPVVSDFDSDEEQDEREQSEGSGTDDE
Procedure, shortened: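 HeLa cells stably expressing HiBiT-BRM were treated for 24 h with compounds (10-point 3-fold dilutions, 30 μM final top dose, in duplicate). HiBiT was detected by lytic LgBiT complementation luminescence. % degradation was normalized to DMSO (high control) and 2 μM of a reference BRM/BRG1 degrader (low control).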

| DC50 [1] [nM] | Dmax [1] [%] | DC50 (HiBit-BRM fusion protein) [nM] | BRM HiBit Degradation Maximum measured (HiBit-BRM fusion protein) | Structure (SMILES) |
| --- | --- | --- | --- | --- |
| > 10000 | < 50 | > 10000 | C (‘C’ = Maximum degradation <50%) | CS(=O)(=O)n1ccc(C(=O)N[C@@H](COCc2ccc(C(=O)N3CC(CCOc4cccc5c4C(=O)N(C4CCC(=O)NC4=O)C5=O)C3)cc2)C(=O)Nc2nc(-c3ccccc3)cs2)c1 (stereo partly drawn) [Compound 238, (2S)-3-([4-[3-(2-[[2-(2,6-dioxopiperidin-3-yl)-1,3-dioxoisoindol-4-yl]oxy]ethyl)azetidine-1-carbonyl]phenyl]methoxy)-2-[(1-methanesulfonylpyrrol-3-yl)formamido]-N-(4-phenyl-1,3-thiazol-2-yl)propanamide] |
| > 10000 | < 50 | > 10000 | C (‘C’ = Maximum degradation <50%) | CS(=O)(=O)n1ccc(C(=O)N[C@@H](COCc2ccc(C(=O)N3CCN(CCCC#Cc4ccc5c(c4)C(=O)N(C4CCC(=O)NC4=O)C5=O)CC3)cc2)C(=O)Nc2nc(-c3ccccc3)cs2)c1.O=CO (stereo partly drawn) [Compound 239, (2S)-3-[[4-(4-[5-[2-(2,6-dioxopiperidin-3-yl)-1,3-dioxoisoindol-5-yl]pent-4-yn-1-yl]piperazine-1-carbonyl)phenyl]methoxy]-2-[(1-methanesulfonylpyrrol-3-yl)formamido]-N-(4-phenyl-1,3-thiazol-2-yl)propanamide; formic acid] |
| > 10000 | < 50 | > 10000 | C (‘C’ = Maximum degradation <50%) | CS(=O)(=O)n1ccc(C(=O)N[C@@H](COCc2ccc(C(=O)NCCNc3ccc4c(c3)C(=O)N(C3CCC(=O)NC3=O)C4=O)cc2)C(=O)Nc2nc(-c3ccccc3)cs2)c1 (stereo partly drawn) [Compound 240, N-(2-[[2-(2,6-dioxopiperidin-3-yl)-1,3-dioxoisoindol-5-yl]amino]ethyl)-4-[[(2S)-2-[(1-methanesulfonylpyrrol-3-yl)formamido]-2-[(4-phenyl-1,3-thiazol-2-yl)carbamoyl]ethoxy]methyl]benzamide] |
| > 10000 | < 50 | > 10000 | C (‘C’ = Maximum degradation <50%) | CN(CCNC(=O)c1ccc(COCC(NC(=O)c2ccn(S(C)(=O)=O)c2)C(=O)Nc2nc(-c3ccccc3)cs2)cc1)CCNc1cccc2c1C(=O)N(C1CCC(=O)NC1=O)C2=O [Compound 244, (N-[2-[(2-[[2-(2,6-dioxopiperidin-3-yl)-1,3-dioxoisoindol-4-yl]amino]ethyl)(methyl)amino]ethyl]-4-[[(2S)-2-[(1-methanesulfonylpyrrol-3-yl)formamido]-2-[(4-phenyl-1,3-thiazol-2-yl)carbamoyl]ethoxy]methyl]benzamide] |
| < 100 | > 75 | < 100 | A (‘A’ = Maximum degradation >75%) | CS(=O)(=O)n1ccc(C(=O)N[C@@H](COCc2ccc(C(=O)NCCC3CCN(c4ccc5c(c4)C(=O)N(C4CCC(=O)NC4=O)C5=O)CC3)cc2)C(=O)Nc2nc(-c3ccccc3)cs2)c1 (stereo partly drawn) [Compound 245, N-(2-[1-[2-(2,6-dioxopiperidin-3-yl)-1,3-dioxoisoindol-5-yl]piperidin-4-yl]ethyl)-4-[[(2S)-2-[(1-methanesulfonylpyrrol-3-yl)formamido]-2-[(4-phenyl-1,3-thiazol-2-yl)carbamoyl]ethoxy]methyl]benzamide] |
| 100 to 1000 | > 75 | 100 to 1000 | A (‘A’ = Maximum degradation >75%) | CS(=O)(=O)n1ccc(C(=O)N[C@@H](COCc2ccc(C(=O)NC3CCN(CCOc4ccc5c(c4)C(=O)N(C4CCC(=O)NC4=O)C5=O)CC3)cc2)C(=O)Nc2nc(-c3ccccc3)cs2)c1 (stereo partly drawn) [Compound 247, N-[1-(2-[[2-(2,6-dioxopiperidin-3-yl)-1,3-dioxoisoindol-5-yl]oxy]ethyl)piperidin-4-yl]-4-[[(2S)-2-[(1-methanesulfonylpyrrol-3-yl)formamido]-2-[(4-phenyl-1,3-thiazol-2-yl)carbamoyl]ethoxy]methyl]benzamide] |
| > 10000 | < 50 | > 10000 | C (‘C’ = Maximum degradation <50%) | Cc1ncsc1-c1ccc(CNC(=O)[C@@H]2C[C@@H](O)CN2C(=O)[C@@H](NC(=O)COCCOCCNC(=O)CCCOCC[C@H](NC(=O)c2ccn(S(C)(=O)=O)c2)C(=O)Nc2nc(-c3ccccc3)cs2)C(C)(C)C)cc1 [Compound 249, (2S,4R)-4-hydroxy-1-[(2S)-2-[2-[2-(2-[4-[(3S)-3-[(1-methanesulfonylpyrrol-3-yl)formamido]-3-[(4-phenyl-1,3-thiazol-2-yl)carbamoyl]propoxy]butanamido]ethoxy)ethoxy]acetamido]-3,3-dimethylbutanoyl]-N-[[4-(4-methyl-1,3-thiazol-5-yl)phenyl]methyl]pyrrolidine-2-carboxamide] |

| Structure (SMILES) | DC50 [1] [nM] | Dmax [1] [%] | DC50 (HiBit-BRM fusion protein) [nM] | BRM HiBit Degradation Maximum measured (HiBit-BRM fusion protein) |
| --- | --- | --- | --- | --- |
| CS(=O)(=O)n1ccc(C(=O)N[C@@H](COCc2ccc(C(=O)NCCCCNc3ccc4c(c3)C(=O)N(C3CCC(=O)NC3=O)C4=O)cc2)C(=O)Nc2nc(-c3ccccc3)cs2)c1 (some centres unmarked) [Compound 242] | 100 to 1000 | 50 to 75 | 100 to 1000 | B (‘B’ = Maximum degradation ≥50% and ≤75%) |
| CS(=O)(=O)n1ccc(C(=O)N[C@@H](COCc2ccc(C(=O)NCCCCCNc3ccc4c(c3)C(=O)N(C3CCC(=O)NC3=O)C4=O)cc2)C(=O)Nc2nc(-c3ccccc3)cs2)c1 (stereo partly drawn) [Compound 243, N-(5-[[2-(2,6-dioxopiperidin-3-yl)-1,3-dioxoisoindol-5-yl]amino]pentyl)-4-[[(2S)-2-[(1-methanesulfonylpyrrol-3-yl)formamido]-2-[(4-phenyl-1,3-thiazol-2-yl)carbamoyl]ethoxy]methyl]benzamide] | 100 to 1000 | > 75 | 100 to 1000 | B (‘B’ = Maximum degradation ≥50% and ≤75%) |
| CS(=O)(=O)n1ccc(C(=O)N[C@@H](COCc2ccc(C(=O)NCCOC3CN(c4ccc5c(c4)C(=O)N(C4CCC(=O)NC4=O)C5=O)C3)cc2)C(=O)Nc2nc(-c3ccccc3)cs2)c1 (stereo partly drawn) [Compound 246, N-[2-([1-[2-(2,6-dioxopiperidin-3-yl)-1,3-dioxoisoindol-5-yl]azetidin-3-yl]oxy)ethyl]-4-[[(2S)-2-[(1-methanesulfonylpyrrol-3-yl)formamido]-2-[(4-phenyl-1,3-thiazol-2-yl)carbamoyl]ethoxy]methyl]benzamide] | 100 to 1000 | > 75 | 100 to 1000 | B (‘B’ = Maximum degradation ≥50% and ≤75%) |
| CS(=O)(=O)n1ccc(C(=O)N[C@@H](COCc2ccc(C(=O)NCCCCS(=O)(=O)CCCNc3cccc4c3C(=O)N(C3CCC(=O)NC3=O)C4=O)cc2)C(=O)Nc2nc(-c3ccccc3)cs2)c1 (stereo partly drawn) [Compound 248, N-[4-(3-[[2-(2,6-dioxopiperidin-3-yl)-1,3-dioxoisoindol-4-yl]amino]propanesulfonyl)butyl]-4-[[(2S)-2-[(1-methanesulfonylpyrrol-3-yl)formamido]-2-[(4-phenyl-1,3-thiazol-2-yl)carbamoyl]ethoxy]methyl]benzamide] | 100 to 1000 | 50 to 75 | 1000 to 10000 | B (‘B’ = Maximum degradation ≥50% and ≤75%) |
